# Reference: article PMC12589998, “Development and validation of a UHPLC-QqQ-MS/MS method for simultaneous determination of fifteen major components from Oroxyli seed extract in rat plasma and its application in the pharmacokinetic study” (Frontiers in Pharmacology, 2025)
# Read-outs that look alike come from different tables or passages of the source.
# Columns and labels:
# [1] = Stability of the analytes in rat plasma samples under storage conditions; format: physicochemical; conditions: n = 6
# Experimental: The bioanalytical method validation was evaluated for specificity, linearity, sensitivity, precision and accuracy, recovery, matrix effect, and stability to ensure compliance with the U.S. Food and Drug Administration (FDA) guidance on precise quantitative analysis ([Center for Drug Evaluation and Research of the U.S., 2018]). The assessment of specificity was conducted by comparing the chromatograms obtained from blank plasma, blank plasma spiked with the target components, and samples gathered following the oral administration of OS extract. Calibration curves were constructed by plotting the ratio for the peak area of the analyte to IS versus the concentration, with 1/x^2 serving as the weighting factor. The lower limit of quantification (LLOQ) was defined as the concentration at which a signal to noise ratio of […] 10 was achievable. The evaluation of precision and accuracy involved the analysis of six QC samples, both within a single day and over 3 consecutive days. Accuracy was expressed as the relative error (RE), whereas precision was gauged via relative standard deviation (RSD). Extraction recovery was ascertained by juxtaposing the responses of analytes in extracted samples against those in samples that were spiked post-extraction. The matrix effect was scrutinized by determining the ratio of the responses of the analytes in post-extraction spiked samples to those in the mixed standard solution. The stability of the analytes in plasma samples was explored under diverse conditions: encompassing a 12-h period in an autosampler, a 4-h interval at room temperature, three cycles of freezing–thawing, and a 7-day duration at −80 °C.
# The retention times of the analyte peaks were consistent with those in the spiked samples. […] The LLOQs for chrysin, chrysin-7-O-β-D-glucuronide, hispidulin, wogonoside, quercetin, quercetin-7-O-β-D-glucoside, baicalin, baicalein, acacetin, oroxin A, oroxin B, oroxylin A, oroxylin A-7-O-β-D-glucuronide, apigenin, and scutellarein were 1.0, 2.0, 1.0, 0.3, 1.0, 0.1, 9.0, 6.0, 0.3, 6.0, 4.0, 1.0, 2.0, 0.5, and 0.3 ng/mL, respectively. In Supplementary Table S2, the RE for accuracy is between −13.77% and 12.55%, and the RSD for precision is below 14.55% (both intra- and inter-day). […] The matrix effect varied from 60.15% to 115.53%, with RSD values below 10.54%. In Supplementary Table S4, the RSD values for stability of the analytes are found to be lower than 13.98%, meaning that these components were stable under the following conditions: encompassing a 12-h period in an autosampler, a 4-h interval at room temperature, three cycles of freezing and thawing, and a 7-day duration at −80 °C.
# [2] = Pharmacokinetic study in rats after oral administration of OS extract (UHPLC-QqQ-MS/MS of plasma); format: in vivo, rat; conditions: for concentration at 0.5 h: SD, 3 g/kg, rat plasma collected 0.5 h after oral administration of the OS extract, read-out: Concentration printed in MRM chromatogram of plasma sample (Figure 2C); for Plasma levels: rat plasma after oral OS extract
# Experimental: The UHPLC-QqQ-MS/MS system consisted of a 1290 UHPLC and a 6470 mass spectrometer (Agilent Technologies). Chromatographic separation was realized on utilizing an ACQUITY UPLC BEH C18 column (2.1 × 100 mm, 1.7 μm) maintained at 35 °C. The mobile phase consisting of 0.1% formic acid in water (A) and acetonitrile (B) was utilized with the elution program set at 0 min–1 min, 5% B–30% B; 1 min–4 min, 30% B– 50% B; 4 min–8 min, and 50% B–90% B. The injection volume was 5 μL, and the flow rate was 0.3 mL/min. The mass spectrometry parameters in the negative ion mode, gas temperature, flow rate, and nebulizer pressure were 300 °C, 7 L/min, and 35 psi, respectively. The mass spectra properties of the 15 analytes and the IS are illustrated in Table 1.
# To 100 μL of the plasma sample, 20 μL of methanol, 20 μL of IS solution (methylparaben, 1 μg/mL), and 5 μL of formic acid were added and vortexed for a duration of 2 min. Subsequently, the mixture underwent extraction with 800 μL of acetonitrile for 3 min. Following 10 min of centrifugation at 12,000 g, the supernatant was collected and evaporated to dryness under N2 to obtain the residue. Finally, the residue was reconstituted in 50% methanol (100 μL) and utilized for analysis.
# Before initiating the study, six male SD rats underwent a 12-h fasting period, during which they were granted unrestricted access to water. Then, the rats were administered an oral dose of 3 g/kg of the OS extract, which had been dissolved in 0.5% CMC-Na aqueous solution. Blood samples, approximately 200 μL each, were collected at various time points: before administration and at 0.03, 0.08, 0.17, 0.25, 0.5, 0.75, 1, 2, 4, 6, 8, 10, 12, 24, 36, and 48 h post-administration. Following 10 min of centrifugation at 6,000 g, the resultant samples were stored at −80 °C.
# The developed method was effectively applied to study the pharmacokinetics in rats following oral administration of the OS extract. […] This was likely due to their low concentrations in the OS extract. Ultimately, nine components (chrysin, chrysin-7-O-β-D-glucuronide, baicalin, baicalein, oroxin A, oroxin B, oroxylin A, oroxylin A-7-O-β-D-glucuronide, and scutellarein) were successfully fitted with pharmacokinetic parameters. The average plasma concentration–time profiles of these substances are depicted in Figure 3. […] All data were presented as the mean ± standard deviation (Mean ± SD).
# [3] = spiked concentration 6400 ng/mL
Structure (SMILES),"Measured, -80°C for 7 days ([1]; spiked concentration 2 ng/mL) [ng/mL]","Measured, Autosampler for 12 h ([1]; spiked concentration 2 ng/mL) [ng/mL]","Measured, Room temperature for 4 h ([1]; spiked concentration 2 ng/mL) [ng/mL]","Measured, Three freeze-thaw cycles ([1]; spiked concentration 2 ng/mL) [ng/mL]","Measured, -80°C for 7 days ([1]; spiked concentration 20 ng/mL) [ng/mL]","Measured, Autosampler for 12 h ([1]; spiked concentration 20 ng/mL) [ng/mL]","Measured, Room temperature for 4 h ([1]; spiked concentration 20 ng/mL) [ng/mL]","Measured, Three freeze-thaw cycles ([1]; spiked concentration 20 ng/mL) [ng/mL]","Measured, -80°C for 7 days ([1]; spiked concentration 320 ng/mL) [ng/mL]","Measured, Autosampler for 12 h ([1]; spiked concentration 320 ng/mL) [ng/mL]","Measured, Room temperature for 4 h ([1]; spiked concentration 320 ng/mL) [ng/mL]","Measured, Three freeze-thaw cycles ([1]; spiked concentration 320 ng/mL) [ng/mL]",concentration at 0.5 h ([2]; male) [ng/mL],Plasma levels [2],also measured
"O=c1c(O)c(-c2ccc(O)c(O)c2)oc2cc(O[C@@H]3O[C@H](CO)[C@@H](O)[C@H](O)[C@H]3O)cc(O)c12 [Quercetin-7-O-β-D-glucoside, quercetin-7-O-β-D-glucoside]",1.96 ± 0.23,2.10 ± 0.15,1.98 ± 0.24,2.03 ± 0.10,19.58 ± 0.68,19.79 ± 2.27,20.28 ± 1.69,17.78 ± 1.17,296.81 ± 20.76,320.27 ± 20.06,315.81 ± 25.77,326.98 ± 27.26,8,too weak to obtain comprehensive pharmacokinetic curves,
"COc1c(O)cc2oc(-c3ccc(O)cc3)cc(=O)c2c1O [Hispidulin, hispidulin]",1.85 ± 0.14,1.79 ± 0.08,1.87 ± 0.12,1.77 ± 0.14,19.90 ± 2.31,21.61 ± 2.09,21.29 ± 2.88,20.10 ± 2.62,280.72 ± 21.00,304.61 ± 18.62,315.17 ± 13.17,289.06 ± 17.23,,too weak to obtain comprehensive pharmacokinetic curves,"concentration at 0.5 h ([2]; male, in vivo): 36 ng/mL"
"O=c1cc(-c2ccccc2)oc2cc(O)c(O)c(O)c12 [Baicalein, baicalein]",,,,,,,,,,,,,400,,"Measured, -80°C for 7 days ([1]; spiked concentration 40 ng/mL): 38.12 ± 3.24 ng/mL; Measured, Autosampler for 12 h ([1]; spiked concentration 40 ng/mL): 39.31 ± 4.16 ng/mL; Measured, Room temperature for 4 h ([1]; spiked concentration 40 ng/mL): 40.41 ± 3.19 ng/mL; Measured, Three freeze-thaw cycles ([1]; spiked concentration 40 ng/mL): 38.12 ± 3.24 ng/mL; Measured, -80°C for 7 days ([1]; spiked concentration 400 ng/mL): 409.67 ± 26.03 ng/mL; Measured, Autosampler for 12 h ([1]; spiked concentration 400 ng/mL): 393.06 ± 21.11 ng/mL; Measured, Room temperature for 4 h ([1]; spiked concentration 400 ng/mL): 389.14 ± 35.85 ng/mL; Measured, Three freeze-thaw cycles ([1]; spiked concentration 400 ng/mL): 409.67 ± 26.03 ng/mL; Measured, -80°C for 7 days [1, 3]: 5967.02 ± 503.93 ng/mL; Measured, Autosampler for 12 h [1, 3]: 6241.15 ± 404.47 ng/mL; Measured, Room temperature for 4 h [1, 3]: 6247.34 ± 389.56 ng/mL; Measured, Three freeze-thaw cycles [1, 3]: 5967.02 ± 503.93 ng/mL; AUC(0-t) ([2]; male, rat plasma, oral 3 g/kg OS extract, n = 6, mean ± SD, read-out: AUC(0-t)): 4200 ng·h/mL; AUC(0-inf) ([2]; male, rat plasma, oral 3 g/kg OS extract, n = 6, mean ± SD, read-out: AUC(0-∞)): 4600 ng·h/mL; Cmax ([2]; male, rat plasma, oral 3 g/kg OS extract, n = 6, mean ± SD, read-out: Cmax): 2930 ng/mL; half-life ([2]; male, rat plasma, oral 3 g/kg OS extract, n = 6, mean ± SD, read-out: T1/2 (converted)): 2.99 ± 1.18 h; Tmax ([2]; male, rat plasma, oral 3 g/kg OS extract, n = 6, mean ± SD, read-out: Tmax): 3.6 ± 1.8 min"
